Laboratory results as given in patent US10493061B2, “Compositions and methods comprising 2-(acylamino)imidazoles” (priority 2014, dated 2019).
In brackets after ≈: the same amount, converted by molar mass. Several values for one entry are separate records, joined by “and”; a condition that tells them apart may be missing. Equal entries are not always repeated. Where two headings read alike, the source gives them in different places.

What was measured:
[1] = test system: Mycobacterium tuberculosis; details: read-out: IC50 (anti-proliferative activity); MTT assay
Procedure: (§1) Library screening and MIC determination for the compounds were performed in 96-well plates as described previously in Koch et al. Planta Med 2009; 75(12): 1326-1330. Different media were used for respective test organisms. […] Mycobacterium tuberculosis H37Ra (ATCC 25177) was grown in 7H9 medium with ADC supplement (Remel, Lenexa, Kans.). Final well volume was 200 μL. […] The remaining wells received 1 μL of test compound in DMSO, in triplicates for MIC determination. Incubation was overnight at 37° C. for other organisms except for M. tuberculosis which was incubated for 5 days. B. subtilis and M. tuberculosis received 11 μL of sterile 5 mg/mL 3-(4,5-dimethylthiazol-2-yl)-2,5-diphenyltetrazolium bromide (MTT) in PBS on day 1 or 4, respectively. Formazan precipitate was dissolved with 50 μL solubilization reagent (50% DMF, 5% SDS, 45% water). Plates were evaluated on a Muliskan FC plate reader (Fisher Scientific, Waltham, Mass.).

[2] = test system: MCF-7s; assay: Cell viability of MCF-7 cells treated with ZNA and ZNA analogues; format: cell-based, human; details: ZNA analogues and metabolite; assay not further specified
Source text: Of the analogues evaluated, those with more electron-donating groups at C5 or on the N^2-carbonyl seem to improve activity.

[3] = in vivo; parameters: species or system Sprague-Dawley rats; details: female, Sprague-Dawley, rat
Procedure: ZNA has promising pkpd parameters. An initial pharmacokinetic (PK) analysis on ZNA was performed at 1 mg/kg IV, 5 mg/kg PO. ZNA was dosed to female Sprague-Dawley rats at either 1 mg/kg intravenously or at 5 mg/kg orally. Plasma was collected with K2EDTA and stored at −80° C. until analysis. Quantification of ZNA was performed by protein precipitation followed by ultra-high performance liquid chromatography (UHPLC) interfaced to an electrospray ionization quadrapole time-of-flight mass spectrometer (ESI-QTOF). Plasma concentrations were determined from a calibration curve using […]. The values determined were fit with Phoenix WinNonlin and pharmacokinetic values reported.
The plasma concentrations for ZNA were very low, and most samples fell below the lower limit of quantification for the assay (10.0 ng/mL). This limited the data available for fitting in WinNonlin. To increase the amount of data for fitting, values from below the curve were extrapolated to approximately 40% of the LLOQ and were used for PK fitting. The percent of the area extrapolated in the PO PK animals ranged from 34-70% which was considered quite high. […] The oral bioavailability determined was approximately 6%. This value is considered a rough estimate based upon the area extrapolated and the unusually high clearance determined. […] Possible explanations for the high clearance are binding of compound to red blood cells, extremely rapid clearance that requires collection of earlier time points to establish a more accurate CO, and extrahepatic elimination.

[4] = test system: Mycobacterium tuberculosis; assay: microbe, parasite or virus in culture; details: read-out: IC50 (anti-proliferative activity)
Procedure: as §1

[5] = ITC binding of naamidine A to ZnCl2; details: ITC with significant amounts of MeOH; reasonable approximation
Source text: While this is believed to be a reasonable approximation of this binding, these ITC experiments were convoluted by solubility issues of the different species, requiring significant amounts of MeOH which can affect the accuracy of ITC experiments. Fisicaro et al. Thermochim. Acta 2014, 586 (0), 40-44. With a Zn^2+ binding affinity in the high nanomolar range, NA's phenotypic activity is likely a result of both kinase modulation and zinc binding.

[6] = test system: Candida albicans; assay: MIC determination in 96-well plates; format: cell-based, Candida albicans (ATCC 90028); details: read-out: MIC100
[7] = test system: A. baumanii; assay: MIC determination in 96-well plates; format: cell-based, Acinetobacter baumannii (ATCC 19606); details: Acinetobacter baumannii; read-out: MIC100
[8] = in vivo, mouse models (Ireland et al.); cited from earlier work
[9] = test system: CEM-TART cells; assay: Cytotoxicity in CEM-TART cells; format: cell-based
[10] = Zn^2+ binding, (ZNA)2Zn dimer formation (MeOH precipitation, X-ray, NMR)
Source text: The structure of the solid product was confirmed by X-ray crystallography (FIG. 14B). […] HCl in D2O protonates the ligand off the metal center, as evidenced by the disappearance of the diastereotopic benzyllic AB quartet in the dimer and its appearance as a singlet in the monomer. […] Of the analogues evaluated, those with more electron-donating groups at C5 or on the N^2-carbonyl seem to improve activity.

COc1ccc(-c2c3nc(N)n(C)c3cc3cc(OC)c(OC)c(OC)c23)cc1 [kealiinine C, Kealiinine C]
IC50 [1]: 42 µM

Cn1c(-c2ccc(O)cc2)c(Cc2ccccc2)[nH]/c1=N\C(=O)c1ccccc1F [ZNA-18, (E)-N-(4-Benzyl-5-(4-hydroxyphenyl)-1-methyl-1H-imidazol-2(3H)-ylidene)-2-fluorobenzamide]
activity [2]: active
ratio of major circulating metabolite to ZNA [3]: 1:1

COc1ccc(Cc2nc(NC3=NC(=O)N(C)C3=O)n(C)c2Cc2ccc(O)cc2)cc1 [Naamidine A]
IC50 [4]: 940 nM and 0.41 µg/mL
Kd [5]: ~0.35 µM
MIC [6]: 0.78 µM (≈ 0.338 µg/mL)
MIC [7]: 79 µM (≈ 34.2 µg/mL)
maximum tolerated dose [8]: 25 mg/kg
selectivity ratio ([9]; CEM-TART IC50 relative to M. tuberculosis IC50): 37
IC50 ([9]; CEM-TART cells): 34.8 µM

COc1ccc(-c2c(Cc3ccccc3)nc(N(C)C(=O)c3ccccc3F)n2C)cc1 [ZNA-17, N-(4-Benzyl-5-(4-methoxyphenyl)-1-methyl-1H-imidazol-2-yl)-2-fluoro-N-methylbenzamide]
activity [2]: not active
Zn^2+ binding [10]: incapable of binding Zn^2+

COc1ccc(-c2c3cc(OC)c(OC)cc3cc3c2nc(N)n3C)cc1 [kealiinine B, Kealiinine B]
IC50 [1]: 8.9 µM
